Measurements published in patent publication US6867180B1, “Use of calreticulin and calreticulin fragments to inhibit endothelial cell growth and angiogenesis, and suppress tumor growth” (The United States of America as represented by the …, priority 1998, dated 2005).
Read-outs that look alike come from different tables or passages of the source. Where no end group is shown, it is not given here.

Assays:
[1] = system: Fetal bovine heart endothelial cells
Procedure: Fetal bovine heart endothelial cells (American Type Culture Collection, ATCC, Manassas, Va.) were grown through passage 12 in DMEM culture medium (BioWhittaker, Walkersville, Md.) containing 10% heat inactivated fetal bovine serum (BioWhittaker), 100 ng/ml bFGF (R&D Systems, Minneapolis, Minn.), and 5 μg/ml gentamicin (Sigma). For proliferation assays, cells were trypsinized (Trypsin/EDTA, Gibco BRL), washed, suspended in culture medium (DMEM containing 10% heat inactivated fetal bovine serum and 5 μg/ml gentamicin), plated (800 cells/well in 0.2 ml culture medium) in triplicate onto 96 well plates, and incubated for 5 days.

[2] = system: human B cell lines VDS-O and CA-46; assay: Proliferation of indicator B cell lines; type: cell-based; settings: 1-100 μg/ml
Description: Human mononuclear cells, and mononuclear cells enriched for T or B lymphocytes, were used in proliferation assays in the presence of phytohemagglutinin (Sigma), pokeweed-mitogen (Sigma), or Epstein-Barr virus (B95-8 strain), as described (Tosato et al., J. Immunol. 140:4329-4336, 1988). The lymphoblastoid cell line VDS-O (Tosato, et al., J. Immunol. 137:2037-2042, 1986); the Burkitt lymphoma cell lines CA46, BL-41, KK124, Ag876, SHO (Cherney et al., Cancer Res. 57:2508-2515, 1997); the T-cell line Molt-4 (ATCC); the Hodgkin's lymphoma cell line Hs445 (ATCC); the prostate adenocarcinoma cell lines TSU-Prl (from A. Passaniti, NIH, Baltimore, Md.), Du145 (ATCC), and PC3 (ATCC); and the acute promyelocytic leukemia cell line HL-60 (ATCC) were cultured in RPMI 1640 medium with 10% heat inactivated fetal calf serum (BioWhittaker), 20 mM L-glutamine (Sigma) and 5 μg/ml gentamicin, and tested in 3-5 day proliferation assays at cell densities ranging from 300 to 2400 cells/well. All other cell lines were tested for proliferation in 3-day assays. The neuroblastoma cell line SKNMC (ATCC) was cultured in EMEM medium (BioWhittaker) with 10% heat inactivated fetal calf serum (BioWhittaker) and 5 μg/ml gentamicin (Sigma) and tested for proliferation at 125-1000 cells/well. The lung adenocarcinoma cell line A549 (ATCC) was cultured in F-12 Nutrient Mixture (HAM, GIBCO BRL) with 10% heat inactivated fetal calf serum (BioWhittaker) and 5 μg/ml gentamicin (Sigma), and tested for proliferation at 250-2000 cells/well. The breast adenocarcinoma MDA-MB-468 (ATCC) and the Wilms tumor SK-NEP-1(ATCC) cell lines were cultured in Leibovitz L-15 medium (GIBCO BRL) supplemented with 10% heat inactivated fetal calf serum (BioWhittaker) and 5 μg/ml gentamicin (Sigma), and tested for proliferation at 300-2500 cells/well. The colon carcinoma cell line SW480 (ATCC), the melanoma cell line A-375 (ATCC), and human foreskin fibroblasts (H568, ATCC) were cultured in DMEM medium (BioWhittaker) with 10% heat inactivated fetal calf serum (BioWhittaker) and 5 μg/ml gentamicin (Sigma), and were tested for proliferation at 500-4000 cells/well. All cell lines tested mycoplasma negative.

[3] = target: T1, recombinant MBP-calreticulin fragment 120-180 (Seq. I.D. No. 5) (human, UniProt P14211 137-197 (mouse entry)); assay: affinity column carrying a mixture of the three peptides on Sepharose
T1 construct: also called MBP-120-180 calreticulin; 61 amino acid calreticulin fragment
T1 sequence: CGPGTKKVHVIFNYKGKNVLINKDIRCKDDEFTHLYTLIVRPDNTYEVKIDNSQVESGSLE
Procedure: To this end, purified preparations of the VDS-O cell line containing full length calreticulin (Seq. I.D. No. 3) as well as N-terminal calreticulin fragments were prepared and tested to determine how these components were retained over an affinity column. To prepare the affinity column, three peptides were synthesized ([…], Seq. I.D. 13; KAFFKR, Seq. I.D. No. 33; and KVFFKR, Seq. I.D. No. 32), purified, and coupled to CNBr-activated Sepharose 4B (Pharmacia). […] The purified preparations of VDS-O cell line containing both full length as well as N-terminal calreticulin fragments were then loaded on the column (Starting material).
To address this issue further, recombinant MBP-calreticulin fragment 120–180 (Seq. I.D. No. 5) was tested for its ability to bind to the affinity column described supra.

[4] = system: peptides KLGFFKR, KAFFKR and KVFFKR coupled to CNBr-activated Sepharose; assay: Affinity column binding to integrin / steroid receptor motif peptides; settings: elution with 20 mM EDTA
Description: FIG. 18 is a Western blot analysis of fractions obtained through affinity purification over a column containing KXaa1FFXaa2R (Seq. I.D. No. 11) and KXaa1GFFKR (Seq. I.D. No. 10). Purified supernatants from the VDS-0 cell line containing full length calreticulin and N-terminal fragments of calreticulin were affinity purified over a mixture of peptides KLGFFKR (Seq. I.D. No. 13), KAFFKR (Seq. I.D. No. 33) and KVFFKR (Seq. I.D. No. 32) coupled to CNBr-activated Sepharose. Starting material (lane 1), unbound material (lanes 2, 3) and bound material (lanes 4, 5) were separated by SDS-PAGE, transferred to nitrocellulose, and subsequently stained with a rabbit antiserum against human calreticulin.
To this end, purified preparations of the VDS-O cell line containing full length calreticulin (Seq. I.D. No. 3) as well as N-terminal calreticulin fragments were prepared and tested to determine how these components were retained over an affinity column. To prepare the affinity column, three peptides were synthesized ([…], Seq. I.D. 13; KAFFKR, Seq. I.D. No. 33; and KVFFKR, Seq. I.D. No. 32), purified, and coupled to CNBr-activated Sepharose 4B (Pharmacia). First, the ability of calreticulin, purified from the culture supernatant of the lymphoblastoid cell line VDS-O, to selectively bind to the column and be eluted by a buffer solution containing 20 mM EDTA and 100 mM NaCl, was verified. […]

[5] = system: bFGF-induced neovascularization; assay: Murine Matrigel assay of angiogenesis in vivo; parameters: species or system BALB/c nude mice; settings: Exp. 4; concentration not given; bFGF 150 ng/ml
Procedure: The murine Matrigel assay (Passaniti et al., Lab. Invest. 67:519-528, 1992) was employed to evaluate the effects of calreticulin and calreticulin fragments on angiogenesis in vivo. The Matrigel assay was performed as described by Angiolillo et al. (J. Exp. Med. 182:155-162, 1995). Matrigel, a crude extract of the Englebreth-Holm-Swarm tumor, was obtained from Collaborative Biomedical Products, Becton Dickinson Labware, Bedford, Mass. An aliquot (0.5 ml) of Matrigel alone or with desired additives was injected subcutaneously (s.c.) into the mid abdominal region of female BALB/c nude mice, 6-8 weeks old. Five mice were injected with each mixture. After 5-7 days, the animals were sacrificed, Matrigel plugs were removed, fixed in 10% neutral buffered formalin solution (Sigma), and embedded in paraffin. Tissues were sectioned (5μ thickness), and slides stained with Masson's trichrome. Quantitative analysis of angiogenesis in Matrigel plugs utilized a computerized semi-automated digital analyzer (Optomax, 40-10 System, Hollis, N.H.). The instrument was adjusted to evaluate a circular area measuring […] of Matrigel, and within this area, to measure the area occupied by cells. For each plug, 12-15 distinct fields were evaluated. The fields were randomly selected from each plug, and the operator was blind to the experimental design. The average area occupied by cells/1.26×10^5 […] Matrigel field was calculated. Results are expressed as the mean area occupied by cells/Matrigel field.
Matrigel plugs were fixed in 10% neutral buffered formalin solution (Sigma), embedded in paraffin, sectioned at 4 μm, and stained with Masson's trichrome by standard methods.

[6] = Table 3 exp. 1, 12.5 μg/ml, bFGF 25 ng/ml, 5 days
[7] = Table 3 exp. 1, 25 μg/ml, bFGF 25 ng/ml, 5 days
[8] = Table 3 exp. 1, 50 μg/ml, bFGF 25 ng/ml, 5 days
[9] = Table 3 exp. 2, 50 μg/ml, bFGF 25 ng/ml, 5 days
[10] = Table 3 exp. 1, 100 μg/ml, bFGF 25 ng/ml, 5 days
[11] = Table 3 exp. 2, 100 μg/ml, bFGF 25 ng/ml, 5 days
[12] = Table 1 exp. 3, estimated concentration 0.160 μg/ml, bFGF 25 ng/ml, 5 days
[13] = Table 1 exp. 1-2, 1 μg/ml, bFGF 25 ng/ml, 5 days

Molecule: light chain of human ferritin: recombinant purified light chain of human ferritin [reference compound]
- effect on the proliferation of endothelial cells ([1]; 1 pg to 1 μg/ml, not shown): minimal effect

Molecule: NYKGKNVLINKDIRCKDDEFTHLYTLIVRPDNTYEVKIDNSQVESGSLE [49 amino acid peptide]
- effect on proliferation of B cell lines VDS-O and CA-46 [2]: neither peptide inhibited the proliferation
- effect on proliferation of B cell lines VDS-O and CA-46 ([2]; listed as 49 amino acid fragment): minimal effect
- Inhibition (%) [1, 6]: 30.2%
- Proliferation (mean cpm/culture) [1, 6]: 9,743 cpm/culture
- Inhibition (%) [1, 7]: 56.7%
- Proliferation (mean cpm/culture) [1, 7]: 6,037 cpm/culture
- Inhibition (%) [1, 8]: 68.7%
- Proliferation (mean cpm/culture) [1, 8]: 4,368 cpm/culture
- Inhibition (%) [1, 9]: 45.4%
- Proliferation (mean cpm/culture) [1, 9]: 5,004 cpm/culture

Molecule: GPGTKKVHVIFNYKGKNVLINKDIRCKDDEFTHLYTLIVRPDNTYEVKIDNSQVESGSLE [60 amino acid peptide]
- effect on proliferation of B cell lines VDS-O and CA-46 [2]: neither peptide inhibited the proliferation
- effect on proliferation of B cell lines VDS-O and CA-46 ([2]; listed as 60 amino acid fragment): minimal effect
- Inhibition (%) [1, 8]: 40.1%
- Proliferation (mean cpm/culture) [1, 8]: 8,318 cpm/culture
- Inhibition (%) [1, 10]: 87.9%
- Proliferation (mean cpm/culture) [1, 10]: 1,688 cpm/culture
- Inhibition (%) [1, 11]: 59.5%
- Proliferation (mean cpm/culture) [1, 11]: 3,709 cpm/culture

Molecule: RANTES [reference compound]
- inhibitory effect of control peptide in endothelial cell assays [1]: no inhibitory effect
- Proliferation (mean cpm/culture) [1, 10]: 16,443 cpm/culture
- Proliferation (mean cpm/culture) ([1]; Table 3 exp. 2, 12.5 μg/ml, bFGF 25 ng/ml, 5 days): 13,644 cpm/culture
- Proliferation (mean cpm/culture) [1, 9]: 10,291 cpm/culture

B1: peptide KAFFKR (Seq. I.D. No. 33) (peptide)
peptide: KAFFKR
notes: Synthetic peptide, coupled to Sepharose in a mixture with the two other peptides; also called portion of the estrogen receptor
- binding result [3]: no binding

B2: peptide KLGFFKR (Seq. I.D. No. 13) (peptide)
peptide: KLGFFKR
notes: Synthetic peptide, coupled to Sepharose in a mixture with the two other peptides; also called portion of an integrin
- binding result [3]: no binding

B3: peptide KVFFKR (Seq. I.D. No. 32) (peptide)
peptide: KVFFKR
notes: Synthetic peptide, coupled to Sepharose in a mixture with the two other peptides; also called portion of the glucocorticoid receptor
- binding result [3]: no binding

B4: Gel-eluted calreticulin: natural calreticulin from purified VDS-O B cell line supernatant, 55 kDa band eluted from gel (protein)
chain: EPAVYFKEQFLDGDGWTSRWIESKHKSDFGKFVLSSGKFYGDEEKDKGLQTSQDARFYALSASFEPFSNKGQTLVVQFTVKHEQNIDCGGGYVKLFPNSLDQTDMHGDSEYNIMFGPDICGPGTKKVHVIFNYKGKNVLINKDIRCKDDEFTHLYTLIVRPDNTYEVKIDNSQVESGSLEDDWDFLPPKKIKDPDASKPEDWDERAKIDDPTDSKPEDWDKPEHIPDPDAKKPEDWDEEMDGEWEPPVIQNPEYKGEWKPRQIDNPDYKGTWIHPEIDNPEYSPDPSIYAYDNFGVLGLDLWQVKSGTIFDNFLITNDEAYAEEFGNETWGVTKAAEKQMKDKQDEEQRLKEEEEDKKRKEEEEAEDKEDDEDKDEDEEDEEDKEEDEEEDVPGQAKDEL
- binding to peptide affinity column [4]: retained by the column
- Inhibition (%) [1, 12]: 81%
- Proliferation (mean cpm/culture) [1, 12]: 11,226 cpm/culture

B5: Cleaved calreticulin: calreticulin cleaved (factor Xa) and purified from MBP-calreticulin (protein, UniProt P27797 18-417, looked up)
Calreticulin: EPAVYFKEQFLDGDGWTSRWIESKHKSDFGKFVLSSGKFYGDEEKDKGLQTSQDARFYALSASFEPFSNKGQTLVVQFTVKHEQNIDCGGGYVKLFPNSLDQTDMHGDSEYNIMFGPDICGPGTKKVHVIFNYKGKNVLINKDIRCKDDEFTHLYTLIVRPDNTYEVKIDNSQVESGSLEDDWDFLPPKKIKDPDASKPEDWDERAKIDDPTDSKPEDWDKPEHIPDPDAKKPEDWDEEMDGEWEPPVIQNPEYKGEWKPRQIDNPDYKGTWIHPEIDNPEYSPDPSIYAYDNFGVLGLDLWQVKSGTIFDNFLITNDEAYAEEFGNETWGVTKAAEKQMKDKQDEEQRLKEEEEDKKRKEEEEAEDKEDDEDKDEDEEDEEDKEEDEEEDVPGQAKDEL
- Inhibition (%) [5]: 58%
- Mean Surface Area Occupied by Cells [5]: 3,464 mm^2/1.26 × 10^5 mm^2
- Inhibition (%) [1, 13]: 72%
- Proliferation mean cpm/culture (±SD) [1, 13]: 7,088 (1846) cpm/culture
